Data set [1] has as its target T1, norepinephrine transporter (NET) (Homo sapiens, UniProt P23975).
T1 construct: gene SLC6A2; human NET expressed in transfected HEK293 cells
As to the kind of experiment: inhibition of mIBG internalization in HEK-NET cells, LC-MS/MS quantification. The data set is classed as cell-based.

Substrate in data set [2]: N=C(N)NCc1cccc(I)c1
As to the kind of experiment: cells, lysate or membranes.

T1 sequence (P23975 whole entry): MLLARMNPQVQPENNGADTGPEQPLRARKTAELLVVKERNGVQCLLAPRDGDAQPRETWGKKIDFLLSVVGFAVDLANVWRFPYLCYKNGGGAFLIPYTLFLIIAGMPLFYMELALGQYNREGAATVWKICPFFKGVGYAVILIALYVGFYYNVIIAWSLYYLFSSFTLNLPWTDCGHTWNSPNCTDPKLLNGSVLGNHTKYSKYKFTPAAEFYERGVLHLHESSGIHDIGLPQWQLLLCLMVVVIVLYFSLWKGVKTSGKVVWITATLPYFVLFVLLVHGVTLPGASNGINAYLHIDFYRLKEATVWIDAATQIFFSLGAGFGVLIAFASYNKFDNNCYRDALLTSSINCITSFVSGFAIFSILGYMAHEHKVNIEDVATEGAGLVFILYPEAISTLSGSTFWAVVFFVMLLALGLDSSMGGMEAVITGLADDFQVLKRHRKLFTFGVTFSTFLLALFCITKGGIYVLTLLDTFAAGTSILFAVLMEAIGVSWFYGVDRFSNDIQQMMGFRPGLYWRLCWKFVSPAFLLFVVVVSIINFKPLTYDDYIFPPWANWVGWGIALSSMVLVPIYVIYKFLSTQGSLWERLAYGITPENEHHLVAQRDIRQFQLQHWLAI

Take `c1ccc(CCCN2CCN(CCOC(c3ccccc3)c3ccccc3)CC2)cc1` [GBR12935]: in data set [1], inhibition was half-maximal at 3.61 µM (IC50).

B1: dopamine transporter (DAT) (Homo sapiens) (protein)
chain: MSKSKCSVGLMSSVVAPAKEPNAVGPKEVELILVKEQNGVQLTSSTLTNPRQSPVEAQDRETWGKKIDFLLSVIGFAVDLANVWRFPYLCYKNGGGAFLVPYLLFMVIAGMPLFYMELALGQFNREGAAGVWKICPILKGVGFTVILISLYVGFFYNVIIAWALHYLFSSFTTELPWIHCNNSWNSPNCSDAHPGDSSGDSSGLNDTFGTTPAAEYFERGVLHLHQSHGIDDLGPPRWQLTACLVLVIVLLYFSLWKGVKTSGKVVWITATMPYVVLTALLLRGVTLPGAIDGIRAYLSVDFYRLCEASVWIDAATQVCFSLGVGFGVLIAFSSYNKFTNNCYRDAIVTTSINSLTSFSSGFVVFSFLGYMAQKHSVPIGDVAKDGPGLIFIIYPEAIATLPLSSAWAVVFFIMLLTLGIDSAMGGMESVITGLIDEFQLLHRHRELFTLFIVLATFLLSLFCVTNGGIYVFTLLDHFAAGTSILFGVLIEAIGVAWFYGVGQFSDDIQQMTGQRPSLYWRLCWKLVSPCFLLFVVVVSIVTFRPPHYGAYIFPDWANALGWVIATSSMAMVPIYAAYKFCSLPGSFREKLAYAIAPEKDRELVDRGEVRQFTLRHWLKV
Turning to B1, in data set [2], the Michaelis constant (Km) (in general, the concentration of substrate that gives half-maximal velocity) turned out to be 2.807 µM.

The values above are taken from article PMC10485979, “CUDC-907, a dual PI3K/histone deacetylase inhibitor, increases meta-iodobenzylguanidine uptake (^123/131I-mIBG) in vitro and in vivo: a promising candidate for advancing theranostics in neuroendocrine tumors” (Journal of Translational Medicine, 2023).
